From publication PMC9549968 (The Journal of investigative dermatology, 2021) come the findings set out here.

One experiment has as its system Mrgpra3-Cre-GFP neurons. The experiment in a line: Whole-cell patch-clamp recording of Mrgpra3-Cre-GFP neurons. Format: cell-based, mouse. The settings on record: n=8/8.
For the next experiment, the target named is T1, Mrgprb2 (Mus musculus, UniProt Q3KNA1).
T1 sequence (Q3KNA1 1-338): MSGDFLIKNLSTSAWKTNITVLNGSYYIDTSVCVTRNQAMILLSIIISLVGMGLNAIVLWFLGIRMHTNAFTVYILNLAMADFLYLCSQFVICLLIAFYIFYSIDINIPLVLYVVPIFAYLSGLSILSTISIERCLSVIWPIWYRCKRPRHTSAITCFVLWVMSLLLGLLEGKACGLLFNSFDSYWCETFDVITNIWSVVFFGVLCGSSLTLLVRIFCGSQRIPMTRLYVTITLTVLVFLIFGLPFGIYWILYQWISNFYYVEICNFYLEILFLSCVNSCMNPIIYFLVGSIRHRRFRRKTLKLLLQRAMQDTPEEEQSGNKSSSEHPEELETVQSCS
The experiment in a line: FLIPR calcium imaging, HEK293 expressing Mrgprb2. Format: cell-based.

Another experiment concerns mice. Put plainly: Itch behavior: scratching bouts after intradermal injection. Format: in vivo, mouse. Particulars: for itch-responses (scratching bouts): mice, intradermal injection 1mM, 10μL, versus saline, n=8-12.
The next experiment has as its target T2, Mrgpra1 (Mus musculus, UniProt Q91WW5).
T2 sequence (Q91WW5 1-304): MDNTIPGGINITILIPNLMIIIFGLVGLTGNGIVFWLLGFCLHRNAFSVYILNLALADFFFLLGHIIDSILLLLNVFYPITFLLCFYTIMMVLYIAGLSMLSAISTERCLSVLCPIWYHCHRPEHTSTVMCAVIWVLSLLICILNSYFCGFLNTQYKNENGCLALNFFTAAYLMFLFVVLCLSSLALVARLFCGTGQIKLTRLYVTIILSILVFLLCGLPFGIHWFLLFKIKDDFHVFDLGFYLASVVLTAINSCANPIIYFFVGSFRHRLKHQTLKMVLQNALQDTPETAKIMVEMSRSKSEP
Put plainly: FLIPR calcium imaging, HEK293 expressing Mrgpra1. Type of experiment: cell-based. Particulars: SEM.

For another experiment, the target named is MRGPRX3 (Homo sapiens, UniProt Q96LB0). The experiment in a line: FLIPR calcium imaging, HEK293 expressing MRGPRX3. Type of experiment: cell-based.
Sequence of MRGPRX3 (Q96LB0 whole entry): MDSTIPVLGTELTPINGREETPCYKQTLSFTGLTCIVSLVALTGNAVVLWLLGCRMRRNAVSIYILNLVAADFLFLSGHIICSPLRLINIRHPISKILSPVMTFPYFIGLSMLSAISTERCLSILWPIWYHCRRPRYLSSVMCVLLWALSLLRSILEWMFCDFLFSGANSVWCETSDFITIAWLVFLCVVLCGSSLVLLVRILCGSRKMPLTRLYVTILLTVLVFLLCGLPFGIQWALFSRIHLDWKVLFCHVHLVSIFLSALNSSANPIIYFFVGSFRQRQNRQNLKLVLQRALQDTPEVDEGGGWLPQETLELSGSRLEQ
The target in another experiment is MRGPRX1 (Homo sapiens, UniProt Q96LB2). The experiment in a line: FLIPR calcium imaging, HEK293 expressing MRGPRX1. Format: cell-based. Particulars: SEM.
Sequence of MRGPRX1 (Q96LB2 whole entry): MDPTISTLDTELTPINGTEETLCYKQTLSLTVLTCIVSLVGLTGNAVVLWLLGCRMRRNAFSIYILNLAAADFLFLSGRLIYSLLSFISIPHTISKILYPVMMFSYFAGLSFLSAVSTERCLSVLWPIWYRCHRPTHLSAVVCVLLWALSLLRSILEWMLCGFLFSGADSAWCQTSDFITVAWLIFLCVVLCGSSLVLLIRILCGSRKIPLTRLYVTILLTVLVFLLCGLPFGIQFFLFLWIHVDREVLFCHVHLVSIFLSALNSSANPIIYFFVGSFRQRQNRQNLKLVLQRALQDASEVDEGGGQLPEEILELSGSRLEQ
The next experiment deals with T3, MRGPRX2 (Homo sapiens, UniProt Q96LB1).
T3 sequence (Q96LB1 1-330): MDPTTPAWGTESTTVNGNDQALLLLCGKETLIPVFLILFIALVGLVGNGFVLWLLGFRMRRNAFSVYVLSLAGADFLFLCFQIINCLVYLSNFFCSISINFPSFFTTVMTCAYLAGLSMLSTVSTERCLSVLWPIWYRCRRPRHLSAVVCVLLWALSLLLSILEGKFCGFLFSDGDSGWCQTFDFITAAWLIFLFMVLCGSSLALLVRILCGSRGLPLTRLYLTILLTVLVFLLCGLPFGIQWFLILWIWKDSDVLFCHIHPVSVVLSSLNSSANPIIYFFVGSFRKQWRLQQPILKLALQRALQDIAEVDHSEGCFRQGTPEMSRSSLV
The experiment in a line: FLIPR calcium imaging, HEK293 expressing MRGPRX2. Format: cell-based. Particulars: SEM.

The target of another experiment is T4, Mrgprc11 (Mus musculus, UniProt Q8CIP3).
T4 sequence (Q8CIP3 1-322): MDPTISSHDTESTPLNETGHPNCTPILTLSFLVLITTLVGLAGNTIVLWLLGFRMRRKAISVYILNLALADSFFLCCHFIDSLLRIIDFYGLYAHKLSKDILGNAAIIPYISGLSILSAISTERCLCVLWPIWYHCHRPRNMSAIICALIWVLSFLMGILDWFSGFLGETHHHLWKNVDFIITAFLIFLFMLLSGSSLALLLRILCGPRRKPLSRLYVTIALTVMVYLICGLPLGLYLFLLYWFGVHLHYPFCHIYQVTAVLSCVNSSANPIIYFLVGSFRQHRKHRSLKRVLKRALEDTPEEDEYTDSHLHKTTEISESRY
The experiment in a line: FLIPR calcium imaging, HEK293 expressing Mrgprc11. Format: cell-based.

The next experiment concerns the target T5, Mrgpra2b (Mus musculus, UniProt Q91WW4).
T5 sequence (Q91WW4 1-305): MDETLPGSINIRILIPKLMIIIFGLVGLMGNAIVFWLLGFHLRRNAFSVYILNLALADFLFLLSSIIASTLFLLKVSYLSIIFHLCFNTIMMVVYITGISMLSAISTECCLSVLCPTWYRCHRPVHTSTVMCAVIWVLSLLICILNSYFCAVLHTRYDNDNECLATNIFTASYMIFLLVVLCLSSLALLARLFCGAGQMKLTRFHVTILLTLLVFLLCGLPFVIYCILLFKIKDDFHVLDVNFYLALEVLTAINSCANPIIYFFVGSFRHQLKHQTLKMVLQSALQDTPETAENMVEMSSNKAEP
The experiment in a line: FLIPR calcium imaging, HEK293 expressing Mrgpra2b. Type of experiment: cell-based.

The next experiment relates to DRG neurons. The experiment in a line: Calcium imaging of cultured DRG neurons. Format: cell-based, mouse. The settings on record: 352 neurons imaged.
A further experiment deals with T6, Mrgpra3 (Mus musculus, UniProt Q91WW3).
T6 sequence (Q91WW3 1-302): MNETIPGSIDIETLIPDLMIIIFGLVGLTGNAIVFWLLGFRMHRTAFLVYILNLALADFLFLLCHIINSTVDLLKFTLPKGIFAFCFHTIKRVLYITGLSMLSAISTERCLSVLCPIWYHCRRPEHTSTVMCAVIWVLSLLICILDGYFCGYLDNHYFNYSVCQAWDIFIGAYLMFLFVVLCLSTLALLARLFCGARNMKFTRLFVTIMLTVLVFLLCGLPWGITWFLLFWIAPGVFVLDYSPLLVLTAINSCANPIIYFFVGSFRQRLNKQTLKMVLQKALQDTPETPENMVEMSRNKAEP
The experiment in a line: FLIPR calcium imaging, HEK293 expressing Mrgpra3. Type of experiment: cell-based.

Positions of bridges follow the written chain, without caps; N, C: chain ends. No end group written: not given here.

`CCN(CC)CCCC(C)Nc1ccnc2cc(Cl)ccc12` (stereo not drawn) [CQ, chloroquine, reference compound]: the “action potential discharges in Mrgpra3-Cre-GFP neurons” value in the experiment on Mrgpra3-Cre-GFP neurons (100μM) is “evoked action potential discharges”.

“KKINNPVSCLRKGGRCWNRCIGNTRQIGSCGVPFLKCCKRK (disulfide 9-37, 16-30, 20-38) [Defb3]”: the EC50 came to 11500 ± 3500 nM on Mrgprb2 and 2700 ± 600 nM at Mrgpra1. In addition, the “itch-responses (scratching bouts)” value with mice is listed as “evoked a strong itch phenotype”.

Consider “GIINTLQKYYCRVRGGRCAVLSCLPKEEQIGKCSTRGRKCCRRKK (disulfide 11-40, 18-33, 23-41) [DEFB103]”, for which the EC50 on MRGPRX3 amounted to 7400 ± 1900 nM; at MRGPRX1, 280 ± 50 nM; at MRGPRX2 it was 420 ± 110 nM. Further, the “activation of LAD2 cells, calcium imaging” value in the experiment on LAD2 cells (peptide 1μM, compared with DEFB4) is “activated more LAD2 cells and evoked stronger calcium influx than the DEFB4”. In the experiment on LAD2 cells (ratio of EC50s, LAD2 calcium imaging), the “potency of DEFB103 relative to DEFB4 in LAD2 cells” value was “about 10 fold”.

Consider “Defb1: recombinant mouse β-defensin, constitutively highly expressed in skin (DQYKCLQHGGFCLRSSCPSNTKLQGTCKPDKPNCCKS; ends and bridges not checked; cysteine pairing not given here; UniProt P56386 33-69, looked up)”, for which the “itch-responses (scratching bouts)” value in the experiment on mice was “not significantly different from saline injection”.

For “GIGDPVTCLKSGAICHPVFCPRRYKQIGTCGLPGTKCCKKP (disulfide 8-37, 15-30, 20-38) [DEFB4]”, the EC50 at MRGPRX1 was 58300 ± 18000 nM; at MRGPRX2 it was 17500 ± 3800 nM.

For the compound “FLPKTLRKFFCRIRGGRCAVLNCLGKEEQIGRCSNSGRKCCRKKK (disulfide 11-40, 18-33, 23-41) [Defb14]”, the EC50 came out at 1700 ± 450 nM at Mrgprb2; 21600 ± 11700 nM at Mrgprc11; 19400 ± 8600 nM at Mrgpra2b; 620 ± 160 nM at Mrgpra1; 1000 ± 180 nM on Mrgpra3; 610 ± 170 nM on MRGPRX1. Further, the “Defb14 induced scratching in mast-cell deficient mice” value in the experiment on mice (Mcpt5-Cre::Rosa-stop-DTA mice versus wild-type controls, 1mM, p=0.87) is listed as “did not attenuate”. Moreover, the “scratching responses in mice with ablated Mrgpra3-neurons” value in the experiment with mice (Mrgpra3-Cre::Rosa-stop-DTA mice (n=14) versus controls (n=12), 1mM, p=0.007) is on record as “significantly attenuated”. The “itch-responses (scratching bouts)” value in the experiment with mice is reported as “evoked the most intense itch phenotype”. Besides, the “Defb14-responsive neurons that responded to CQ” value with DRG neurons (cultured mouse DRG neurons, AAV9-GCaMP6f) is listed as 46/55. Besides, the “calcium response of DRG neurons” value in the experiment on DRG neurons (dissociated mouse DRG neurons expressing GCaMP6f) is “induced calcium increases in DRG neurons”. For the same compound, the “action potential discharges in Mrgpra3-Cre-GFP neurons” value in the experiment with Mrgpra3-Cre-GFP neurons (1μM) is reported as “evoked action potential discharges”.

In general, EC50 refers to the concentration at which the effect is half-maximal.
